Laboratory results: patent US9283222B2 (priority 2006, dated 2016)

Target: Recombinant Human Poly(ADP-Ribose) Polymerase (PARP), PARP-1 (Homo sapiens (Human), UniProt P09874)
Settings: read-out: PARP-1 (Ki); Table 1; text calls the values EC50s

Chain of Recombinant Human Poly(ADP-Ribose) Polymerase (PARP), PARP-1 (P09874 whole entry): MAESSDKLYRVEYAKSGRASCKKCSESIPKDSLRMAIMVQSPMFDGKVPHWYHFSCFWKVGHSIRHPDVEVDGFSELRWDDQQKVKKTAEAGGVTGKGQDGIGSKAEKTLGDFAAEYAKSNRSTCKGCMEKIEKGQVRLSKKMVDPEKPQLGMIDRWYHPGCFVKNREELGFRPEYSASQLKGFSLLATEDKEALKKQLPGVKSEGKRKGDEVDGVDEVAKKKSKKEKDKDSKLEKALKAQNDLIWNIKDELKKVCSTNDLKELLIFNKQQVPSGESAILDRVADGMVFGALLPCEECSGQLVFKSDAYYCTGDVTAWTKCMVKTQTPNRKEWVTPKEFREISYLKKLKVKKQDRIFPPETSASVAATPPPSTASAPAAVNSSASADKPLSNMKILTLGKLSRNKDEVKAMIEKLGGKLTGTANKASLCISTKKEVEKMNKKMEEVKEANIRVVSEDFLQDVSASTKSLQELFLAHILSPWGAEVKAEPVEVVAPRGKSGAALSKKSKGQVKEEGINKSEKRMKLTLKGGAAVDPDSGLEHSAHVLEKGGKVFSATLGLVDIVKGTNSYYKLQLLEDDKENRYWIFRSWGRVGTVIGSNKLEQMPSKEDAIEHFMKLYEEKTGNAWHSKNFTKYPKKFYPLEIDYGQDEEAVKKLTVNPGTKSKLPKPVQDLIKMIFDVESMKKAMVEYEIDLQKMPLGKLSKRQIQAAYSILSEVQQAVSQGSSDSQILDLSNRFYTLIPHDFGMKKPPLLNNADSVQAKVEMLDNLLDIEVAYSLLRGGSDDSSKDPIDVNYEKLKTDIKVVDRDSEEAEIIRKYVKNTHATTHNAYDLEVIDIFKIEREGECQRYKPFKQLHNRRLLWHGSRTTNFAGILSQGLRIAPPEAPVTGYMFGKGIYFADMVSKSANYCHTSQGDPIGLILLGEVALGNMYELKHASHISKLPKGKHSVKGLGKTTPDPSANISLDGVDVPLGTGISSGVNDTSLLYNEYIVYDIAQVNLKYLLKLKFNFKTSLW

Row | SMILES | Ki [µM]
1 | COc1ccc(CCNC(=O)c2cccc(Cc3n[nH]c(=O)c4c3CCCC4)c2)c(OC)c1 [Example 403, N-(2-(2,4-dimethoxyphenyl)ethyl)-3-((4-oxo-3,4,5,6,7,8-hexahydrophthalazin-1-yl)methyl)benzamide] | 0.056
2 | COc1ccc(OC)c(CCNC(=O)c2cccc(Cc3n[nH]c(=O)c4c3CCCC4)c2)c1 [Example 404, N-(2-(2,5-dimethoxyphenyl)ethyl)-3-((4-oxo-3,4,5,6,7,8-hexahydrophthalazin-1-yl)methyl)benzamide] | 0.055
3 | COc1ccc(CCNC(=O)c2cccc(Cc3n[nH]c(=O)c4c3CCCC4)c2)cc1OC [Example 405, N-(2-(3,4-dimethoxyphenyl)ethyl)-3-((4-oxo-3,4,5,6,7,8-hexahydrophthalazin-1-yl)methyl)benzamide] | 0.019
4 | COc1cc(CCNC(=O)c2cccc(Cc3n[nH]c(=O)c4c3CCCC4)c2)cc(OC)c1 [Example 406, N-(2-(3,5-dimethoxyphenyl)ethyl)-3-((4-oxo-3,4,5,6,7,8-hexahydrophthalazin-1-yl)methyl)benzamide] | 0.042
5 | O=C(NCCc1ccc2c(c1)OCO2)c1cccc(Cc2n[nH]c(=O)c3c2CCCC3)c1 [Example 407, N-(2-(1,3-benzodioxol-5-yl)ethyl)-3-((4-oxo-3,4,5,6,7,8-hexahydrophthalazin-1-yl)methyl)benzamide] | 0.022
6 | CC(c1ccc(F)c(N2CCCC2=O)c1)c1n[nH]c(=O)c2c1CCCC2 (stereo not drawn) [Example 413, 4-(1-(4-fluoro-3-(2-oxopyrrolidin-1-yl)phenyl)ethyl)-5,6,7,8-tetrahydrophthalazin-1(2H)-one] | 0.018
7 | O=c1[nH]nc(Cc2ccc(F)c(Br)c2)c2ncccc12 [Example 415] | 3.2
8 | O=C(c1cccc(Cc2n[nH]c(=O)c3c2CCCC3)c1)N1CCC(O)CC1 [Example 428, 4-(3-((4-hydroxypiperidin-1-yl)carbonyl)benzyl)-5,6,7,8-tetrahydrophthalazin-1(2H)-one] | 0.005
9 | NC(=O)C1CCN(C(=O)c2cccc(Cc3n[nH]c(=O)c4c3CCCC4)c2)CC1 [Example 430, 1-(3-((4-oxo-3,4,5,6,7,8-hexahydrophthalazin-1-yl)methyl)benzoyl)piperidine-4-carboxamide] | 0.005
10 | CCN1CCN(C(=O)c2cccc(Cc3n[nH]c(=O)c4c3CCCC4)c2)CC1 [Example 436, 4-(3-((4-ethylpiperazin-1-yl)carbonyl)benzyl)-5,6,7,8-tetrahydrophthalazin-1(2H)-one] | 0.01
11 | CC(=O)N1CCN(C(=O)c2cccc(Cc3n[nH]c(=O)c4c3CCCC4)c2)CC1 [Example 438, 4-(3-((4-acetylpiperazin-1-yl)carbonyl)benzyl)-5,6,7,8-tetrahydrophthalazin-1(2H)-one] | 0.003
12 | O=C(c1cccc(Cc2n[nH]c(=O)c3c2CCCC3)c1)N1CCN(c2ccccc2)CC1 [Example 440, 4-(3-((4-phenylpiperazin-1-yl)carbonyl)benzyl)-5,6,7,8-tetrahydrophthalazin-1(2H)-one] | 0.003
13 | O=C(c1cccc(Cc2n[nH]c(=O)c3c2CCCC3)c1)N1CCN(c2ccccn2)CC1 [Example 441, 4-(3-((4-pyridin-2-ylpiperazin-1-yl)carbonyl)benzyl)-5,6,7,8-tetrahydrophthalazin-1(2H)-one] | 0.003
14 | O=C(c1cccc(Cc2n[nH]c(=O)c3c2CCCC3)c1)N1CCN(c2ncccn2)CC1 [Example 442, 4-(3-((4-pyrimidin-2-ylpiperazin-1-yl)carbonyl)benzyl)-5,6,7,8-tetrahydrophthalazin-1(2H)-one] | 0.0008
15 | O=C(c1cccc(Cc2n[nH]c(=O)c3c2CCCC3)c1)N1CCN(c2ccc(F)cc2)CC1 [Example 445, 4-(3-((4-(4-fluorophenyl)piperazin-1-yl)carbonyl)benzyl)-5,6,7,8-tetrahydrophthalazin-1(2H)-one] | 0.006
16 | O=C(c1cccc(Cc2n[nH]c(=O)c3c2CCCC3)c1)N1CCN(c2ccccc2Cl)CC1 [Example 446, 4-(3-((4-(2-chlorophenyl)piperazin-1-yl)carbonyl)benzyl)-5,6,7,8-tetrahydrophthalazin-1(2H)-one] | 0.01
17 | CN1CCCN(C(=O)c2cccc(Cc3n[nH]c(=O)c4c3CCCC4)c2)CC1 [Example 447, 4-(3-((4-methyl-1,4-diazepan-1-yl)carbonyl)benzyl)-5,6,7,8-tetrahydrophthalazin-1(2H)-one] | 0.01
18 | Cc1c(C(=O)Nc2cc(Cc3n[nH]c(=O)c4c3CCCC4)ccc2F)cnn1-c1ccccc1 [Example 454, N-(2-fluoro-5-((4-oxo-3,4,5,6,7,8-hexahydrophthalazin-1-yl)methyl)phenyl)-5-methyl-1-phenyl-1H-pyrazole-4-carboxamide] | 0.016

Further lines, results first:

Row | Ki [µM] | SMILES
19 | 0.034 | CCN(CCN(C)C)C(=O)c1cccc(Cc2n[nH]c(=O)c3c2CCCC3)c1 [Example 418, N-(2-(dimethylamino)ethyl)-N-ethyl-3-((4-oxo-3,4,5,6,7,8-hexahydrophthalazin-1-yl)methyl)benzamide]
20 | 0.016 | CCN(CC)CCN(C)C(=O)c1cccc(Cc2n[nH]c(=O)c3c2CCCC3)c1 [Example 419, N-(2-(diethylamino)ethyl)-N-methyl-3-((4-oxo-3,4,5,6,7,8-hexahydrophthalazin-1-yl)methyl)benzamide]
21 | 0.021 | CCN(Cc1ccccc1)C(=O)c1cccc(Cc2n[nH]c(=O)c3c2CCCC3)c1 [Example 420, N-benzyl-N-ethyl-3-((4-oxo-3,4,5,6,7,8-hexahydrophthalazin-1-yl)methyl)benzamide]
22 | 0.068 | CC(C)N(Cc1ccccc1)C(=O)c1cccc(Cc2n[nH]c(=O)c3c2CCCC3)c1 [Example 421, N-benzyl-N-isopropyl-3-((4-oxo-3,4,5,6,7,8-hexahydrophthalazin-1-yl)methyl)benzamide]
23 | 0.105 | CCCCN(Cc1ccccc1)C(=O)c1cccc(Cc2n[nH]c(=O)c3c2CCCC3)c1 [Example 422, N-benzyl-N-butyl-3-((4-oxo-3,4,5,6,7,8-hexahydrophthalazin-1-yl)methyl)benzamide]
24 | 0.12 | O=C(c1cccc(Cc2n[nH]c(=O)c3c2CCCC3)c1)N(Cc1ccccc1)Cc1ccccc1 [Example 423, N,N-dibenzyl-3-((4-oxo-3,4,5,6,7,8-hexahydrophthalazin-1-yl)methyl)benzamide]
25 | 0.031 | O=C(c1cccc(Cc2n[nH]c(=O)c3c2CCCC3)c1)N(CCO)Cc1ccccc1 [Example 424, N-benzyl-N-(2-hydroxyethyl)-3-((4-oxo-3,4,5,6,7,8-hexahydrophthalazin-1-yl)methyl)benzamide]
26 | 0.014 | CN(CCc1ccccn1)C(=O)c1cccc(Cc2n[nH]c(=O)c3c2CCCC3)c1 [Example 426, N-methyl-3-((4-oxo-3,4,5,6,7,8-hexahydrophthalazin-1-yl)methyl)-N-(2-pyridin-2-ylethyl)benzamide]
27 | 0.022 | COc1ccc(CCN(C)C(=O)c2cccc(Cc3n[nH]c(=O)c4c3CCCC4)c2)cc1OC [Example 427, N-(2-(3,4-dimethoxyphenyl)ethyl)-N-methyl-3-((4-oxo-3,4,5,6,7,8-hexahydrophthalazin-1-yl)methyl)benzamide]
28 | 0.019 | NC(=O)C1CCCN(C(=O)c2cccc(Cc3n[nH]c(=O)c4c3CCCC4)c2)C1 (stereo not drawn) [Example 429, 1-(3-((4-oxo-3,4,5,6,7,8-hexahydrophthalazin-1-yl)methyl)benzoyl)piperidine-3-carboxamide]
29 | 0.006 | O=C(c1cccc(Cc2n[nH]c(=O)c3c2CCCC3)c1)N1CCC(n2c(=O)[nH]c3ccccc32)CC1 [Example 434, 4-(3-((4-(2-oxo-2,3-dihydro-1H-benzimidazol-1-yl)piperidin-1-yl)carbonyl)benzyl)-5,6,7,8-tetrahydrophthalazin-1(2H)-one]
30 | 0.02 | CN1CCN(C(=O)c2cccc(Cc3n[nH]c(=O)c4c3CCCC4)c2)CC1 [Example 435, 4-(3-((4-methylpiperazin-1-yl)carbonyl)benzyl)-5,6,7,8-tetrahydrophthalazin-1(2H)-one]
31 | 0.004 | O=CN1CCN(C(=O)c2cccc(Cc3n[nH]c(=O)c4c3CCCC4)c2)CC1 [Example 437, 4-(3-((4-oxo-3,4,5,6,7,8-hexahydrophthalazin-1-yl)methyl)benzoyl)piperazine-1-carbaldehyde]
32 | 0.008 | O=C(c1cccc(Cc2n[nH]c(=O)c3c2CCCC3)c1)N1CCN(CCO)CC1 [Example 439, 4-(3-((4-(2-hydroxyethyl)piperazin-1-yl)carbonyl)benzyl)-5,6,7,8-tetrahydrophthalazin-1(2H)-one]
33 | 0.016 | O=C(c1cccc(Cc2n[nH]c(=O)c3c2CCCC3)c1)N1CCN(CCOCCO)CC1 [Example 443, 4-(3-((4-(2-(2-hydroxyethoxy)ethyl)piperazin-1-yl)carbonyl)benzyl)-5,6,7,8-tetrahydrophthalazin-1(2H)-one]
34 | 0.004 | O=C(c1cccc(Cc2n[nH]c(=O)c3c2CCCC3)c1)N1CCN(c2ccccc2F)CC1 [Example 444, 4-(3-((4-(2-fluorophenyl)piperazin-1-yl)carbonyl)benzyl)-5,6,7,8-tetrahydrophthalazin-1(2H)-one]
35 | 0.694 | O=c1[nH]nc(Cc2ccc(F)c(N3CCCCS3(=O)=O)c2)c2c1CCCC2 [Example 448]
36 | 0.103 | O=C1CCN1c1cc(Cc2n[nH]c(=O)c3cccnc23)ccc1F [Example 449, 8-(4-fluoro-3-(2-oxoazetidin-1-yl)benzyl)pyrido(2,3-d)pyridazin-5(6H)-one]
37 | 0.122 | O=c1[nH]nc(Cc2ccc(F)c(Cl)c2)c2c1CCCN2 [Example 450, 8-(3-chloro-4-fluorobenzyl)-2,3,4,6-tetrahydropyrido(2,3-d)pyridazin-5(1H)-one]
38 | 0.056 | CC(c1ccc(F)c(N2CCC2=O)c1)c1n[nH]c(=O)c2c1CCCC2 (stereo not drawn) [Example 451, 4-(1-(4-fluoro-3-(2-oxoazetidin-1-yl)phenyl)ethyl)-5,6,7,8-tetrahydrophthalazin-1(2H)-one]
39 | 0.014 | O=C(CN1CCCC1=O)Nc1cc(Cc2n[nH]c(=O)c3c2CCCC3)ccc1F [Example 453, N-(2-fluoro-5-((4-oxo-3,4,5,6,7,8-hexahydrophthalazin-1-yl)methyl)phenyl)-2-(2-oxopyrrolidin-1-yl)acetamide]
